{
  "source": "patent US20250346574A1",
  "about": "“PYRIDINYL SUBSTITUTED OXOISOINDOLINE COMPOUNDS FOR THE TREATMENT OF CANCER” (Bristol-Myers Squibb Company, priority 2021, published 2025)",
  "biological_target": "Helios (Homo sapiens, UniProt Q96SW2+Q9UKS7)",
  "sequence (Q9UKS7 whole entry)": "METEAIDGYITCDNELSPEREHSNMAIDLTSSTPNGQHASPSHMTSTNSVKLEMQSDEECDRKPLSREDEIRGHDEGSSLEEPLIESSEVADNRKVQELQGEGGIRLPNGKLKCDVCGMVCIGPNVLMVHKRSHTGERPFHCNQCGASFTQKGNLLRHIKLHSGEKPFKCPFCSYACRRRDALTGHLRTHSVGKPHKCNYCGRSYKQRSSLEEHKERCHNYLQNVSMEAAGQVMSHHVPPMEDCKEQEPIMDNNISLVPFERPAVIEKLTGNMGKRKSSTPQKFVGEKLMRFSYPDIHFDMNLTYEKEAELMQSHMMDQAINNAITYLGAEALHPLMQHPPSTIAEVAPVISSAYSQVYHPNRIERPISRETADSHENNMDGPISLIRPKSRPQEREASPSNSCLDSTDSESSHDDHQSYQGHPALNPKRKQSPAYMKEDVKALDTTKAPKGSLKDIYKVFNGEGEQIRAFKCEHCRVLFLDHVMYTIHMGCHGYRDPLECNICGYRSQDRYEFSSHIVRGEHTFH",
  "sequence (Q96SW2 whole entry)": "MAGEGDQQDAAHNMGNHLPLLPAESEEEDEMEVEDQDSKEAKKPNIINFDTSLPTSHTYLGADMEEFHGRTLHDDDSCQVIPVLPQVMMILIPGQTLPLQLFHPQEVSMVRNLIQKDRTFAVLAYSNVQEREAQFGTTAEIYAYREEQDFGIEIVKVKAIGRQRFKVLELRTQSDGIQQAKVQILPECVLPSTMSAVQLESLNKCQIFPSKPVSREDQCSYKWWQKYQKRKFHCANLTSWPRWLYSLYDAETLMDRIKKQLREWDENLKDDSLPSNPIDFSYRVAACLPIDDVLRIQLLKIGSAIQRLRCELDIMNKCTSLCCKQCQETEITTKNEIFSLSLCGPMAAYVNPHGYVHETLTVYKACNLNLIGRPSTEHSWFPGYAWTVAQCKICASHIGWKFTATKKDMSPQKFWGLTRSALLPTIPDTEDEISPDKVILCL",
  "sequence (Q16531 whole entry partner)": "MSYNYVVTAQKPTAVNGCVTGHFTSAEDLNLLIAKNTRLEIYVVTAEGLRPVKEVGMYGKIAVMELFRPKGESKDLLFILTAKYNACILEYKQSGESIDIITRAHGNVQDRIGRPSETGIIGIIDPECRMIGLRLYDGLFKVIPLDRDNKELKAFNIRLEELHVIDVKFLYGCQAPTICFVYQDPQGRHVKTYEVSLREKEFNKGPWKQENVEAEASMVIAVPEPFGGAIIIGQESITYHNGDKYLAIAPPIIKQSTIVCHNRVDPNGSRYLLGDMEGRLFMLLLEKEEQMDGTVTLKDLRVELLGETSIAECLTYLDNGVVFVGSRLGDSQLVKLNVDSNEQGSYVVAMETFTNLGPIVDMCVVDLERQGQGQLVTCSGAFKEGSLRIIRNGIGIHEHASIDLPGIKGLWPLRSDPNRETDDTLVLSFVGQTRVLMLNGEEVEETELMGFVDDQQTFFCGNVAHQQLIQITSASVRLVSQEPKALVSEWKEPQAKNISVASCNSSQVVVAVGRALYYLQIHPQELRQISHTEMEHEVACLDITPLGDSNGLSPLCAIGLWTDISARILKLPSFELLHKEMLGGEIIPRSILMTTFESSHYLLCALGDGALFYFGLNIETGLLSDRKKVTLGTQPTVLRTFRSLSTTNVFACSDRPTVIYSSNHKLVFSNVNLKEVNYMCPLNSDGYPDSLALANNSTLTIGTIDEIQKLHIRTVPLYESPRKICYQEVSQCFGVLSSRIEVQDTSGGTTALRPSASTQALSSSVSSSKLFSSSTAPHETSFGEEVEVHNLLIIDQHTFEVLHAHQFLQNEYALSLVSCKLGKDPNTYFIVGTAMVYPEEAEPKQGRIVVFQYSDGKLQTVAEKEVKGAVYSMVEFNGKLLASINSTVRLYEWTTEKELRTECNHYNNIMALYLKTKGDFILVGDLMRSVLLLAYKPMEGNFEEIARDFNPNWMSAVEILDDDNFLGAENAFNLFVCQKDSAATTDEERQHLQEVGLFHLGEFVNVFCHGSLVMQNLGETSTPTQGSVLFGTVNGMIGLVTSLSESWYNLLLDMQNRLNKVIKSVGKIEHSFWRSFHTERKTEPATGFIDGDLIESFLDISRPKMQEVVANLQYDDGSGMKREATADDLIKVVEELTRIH",
  "assay": "Helios Human T Regulatory Cells Degradation Assay",
  "format": "cell-based",
  "parameters": "fluorescently labelled antibodies against Helios in 1× Permeabilization buffer; endogenous in cells; host or cells: cryopreserved human T regulatory cells",
  "conditions": "cryopreserved human T regulatory cells, incubated 20 hours, Helios-APC antibody staining, flow cytometry; read-out: hTreg Helios DC50",
  "method": "Cryopreserved human T regulatory cells were thawed in RPMI+10% FBS+20 ng/mL IL-2. After being spun at 1200 rpm for 5 mins, the cells were resuspended in RPMI+10% FBS+20 ng/mL and rested at 37° C. with 5% CO2 for 3 hours. […] Cell cultures were incubated for 20 hours at 37° C. and 5% CO2. In order to facilitate analysis, cell cultures were spun down at 1200 rpm for 5 minutes and the supernatant was discarded using an EL406 plate washer. After washing three times with 70 μL PBS, cell pellets were resuspended in 50 μL of near IR viability staining solution (Life Technologies, Cat #L34975) and incubated for 30 minutes on ice protected from light. Cells were washed three times with 70 μL PBS+0.5% BSA using an EL406 plate washer. […] Subsequently, 30 μL of 1× Permeabilization buffer was added prior to centrifuging the cells and discarding the supernatant. Stained cells were resuspended in 30 μL of flow cytometry staining buffer (PBS+0.5% BSA) and analyzed using an Intellicyt Ique Plus flow cytometer.",
  "data": [
    {"smiles": "O=C1CCC(N2Cc3c(ccc(-c4nccc(CN5CCC(O)(c6ccccc6)CC5)c4F)c3F)C2=O)C(=O)N1", "note": "(stereo not shown) [Example 280, 3-(4-fluoro-5-(3-fluoro-4-((4-hydroxy-4-phenylpiperidin-1-yl)methyl)pyridin-2-yl)-1-oxoisoindolin-2-yl)piperidine-2,6-dione]", "values": [
      {"measurement": "DC50", "value": "≥ 10000", "unit": "nM"}
    ]},
    {"smiles": "O=C1CCC(N2Cc3cc(-c4cc(Cn5cccn5)ccn4)ccc3C2=O)C(=O)N1", "note": "(stereo not shown) [Example 165, 3-(5-(4-((1H-pyrazol-1-yl)methyl)pyridin-2-yl)-1-oxoisoindolin-2-yl)piperidine-2,6-dione]", "values": [
      {"measurement": "DC50", "value": 178, "unit": "nM"}
    ]},
    {"smiles": "CC(O)C1CCN(Cc2ccnc(-c3ccc4c(c3)CN(C3CCC(=O)NC3=O)C4=O)c2)CC1", "note": "(stereo not shown) [Example 108, 3-(5-(4-((4-(1-hydroxyethyl)piperidin-1-yl)methyl)pyridin-2-yl)-1-oxoisoindolin-2-yl)piperidine-2,6-dione]", "values": [
      {"measurement": "DC50", "value": 1.4, "unit": "nM"}
    ]},
    {"smiles": "CC1(F)CCN(Cc2ccnc(-c3ccc4c(c3)CN(C3CCC(=O)NC3=O)C4=O)c2F)CC1", "note": "(stereo not shown) [Example 198, 3-(5-(3-fluoro-4-((4-fluoro-4-methylpiperidin-1-yl)methyl)pyridin-2-yl)-1-oxoisoindolin-2-yl)piperidine-2,6-dione]", "values": [
      {"measurement": "DC50", "value": 51.9, "unit": "nM"}
    ]},
    {"smiles": "CC(C)(O)[C@H]1CCCN1Cc1ccnc(-c2ccc3c(c2)CN(C2CCC(=O)NC2=O)C3=O)c1Cl", "note": "(stereo partly drawn) [Example 96, 3-(5-(3-chloro-4-(((R)-2-(2-hydroxypropan-2-yl)pyrrolidin-1-yl)methyl)pyridin-2-yl)-1-oxoisoindolin-2-yl)piperidine-2,6-dione]", "values": [
      {"measurement": "DC50", "value": 6.6, "unit": "nM"}
    ]},
    {"smiles": "CC1CC(O)(c2ccc(F)cc2)CN1Cc1ccnc(-c2ccc3c(c2)CN(C2CCC(=O)NC2=O)C3=O)c1F", "note": "(stereo not shown) [Example 237, 3-(5-(3-fluoro-4-((4-(4-fluorophenyl)-4-hydroxy-2-methylpyrrolidin-1-yl)methyl)pyridin-2-yl)-1-oxoisoindolin-2-yl)piperidine-2,6-dione]", "values": [
      {"measurement": "DC50", "value": "≥ 10000", "unit": "nM"}
    ]},
    {"smiles": "CN(C(=O)c1ccccc1)C1CN(Cc2ccnc(-c3ccc4c(c3)CN([C@H]3CCC(=O)NC3=O)C4=O)c2)C1", "note": "[Example 160, (S)—N-(1-((2-(2-(2,6-dioxopiperidin-3-yl)-1-oxoisoindolin-5-yl)pyridin-4-yl)methyl)azetidin-3-yl)-N-methylbenzamide]", "values": [
      {"measurement": "DC50", "value": 61.9, "unit": "nM"}
    ]},
    {"smiles": "O=C1CCC(N2Cc3cc(-c4nccc(CN5CC6CC(C5)C6O)c4F)ccc3C2=O)C(=O)N1", "note": "(stereo not shown) [Example 219, 3-(5-(3-fluoro-4-((6-hydroxy-3-azabicyclo[3.1.1]heptan-3-yl)methyl)pyridin-2-yl)-1-oxoisoindolin-2-yl)piperidine-2,6-dione]", "values": [
      {"measurement": "DC50", "value": 9.8, "unit": "nM"}
    ]},
    {"smiles": "O=C1CCC(N2Cc3cc(-c4nccc(CN5CCCC(F)C5)c4F)ccc3C2=O)C(=O)N1", "note": "(stereo not shown) [Example 205, 3-(5-(3-fluoro-4-((3-fluoropiperidin-1-yl)methyl)pyridin-2-yl)-1-oxoisoindolin-2-yl)piperidine-2,6-dione]", "values": [
      {"measurement": "DC50", "value": "≥ 10000", "unit": "nM"}
    ]},
    {"smiles": "O=C1CCC(N2Cc3cc(-c4nccc(CN5CCC6(CC5)CC(O)C6)c4F)ccc3C2=O)C(=O)N1", "note": "(stereo not shown) [Example 225, 3-(5-(3-fluoro-4-((2-hydroxy-7-azaspiro[3.5]nonan-7-yl)methyl)pyridin-2-yl)-1-oxoisoindolin-2-yl)piperidine-2,6-dione]", "values": [
      {"measurement": "DC50", "value": 29.3, "unit": "nM"}
    ]},
    {"smiles": "O=C1CC[C@H](N2Cc3cc(-c4nccc(CN5CC6(CC(O)C6)C5)c4F)ccc3C2=O)C(=O)N1", "note": "[Example 153, (S)-3-(5-(3-fluoro-4-((6-hydroxy-2-azaspiro[3.3]heptan-2-yl)methyl)pyridin-2-yl)-1-oxoisoindolin-2-yl)piperidine-2,6-dione]", "values": [
      {"measurement": "DC50", "value": 15.3, "unit": "nM"}
    ]},
    {"smiles": "CC1(O)CC2CN(Cc3ccnc(-c4ccc5c(c4)CN(C4CCC(=O)NC4=O)C5=O)c3F)CC2C1", "note": "(stereo not shown) [Example 255, 3-(5-(3-fluoro-4-((5-hydroxy-5-methylhexahydrocyclopenta[c]pyrrol-2(1H)-yl)methyl)pyridin-2-yl)-1-oxoisoindolin-2-yl)piperidine-2,6-dione]", "values": [
      {"measurement": "DC50", "value": 492, "unit": "nM"}
    ]},
    {"smiles": "O=C1CCC(N2Cc3cc(-c4nccc(CN5CCC(F)CC5)c4F)ccc3C2=O)C(=O)N1", "note": "(stereo not shown) [Example 260, 3-(5-(3-fluoro-4-((4-fluoropiperidin-1-yl)methyl)pyridin-2-yl)-1-oxoisoindolin-2-yl)piperidine-2,6-dione]", "values": [
      {"measurement": "DC50", "value": 140, "unit": "nM"}
    ]},
    {"smiles": "O=C1CCC(N2Cc3cc(-c4nccc(CN5CCc6c(ccnc6Cl)C5)c4F)ccc3C2=O)C(=O)N1", "note": "(stereo not shown) [Example 267, 3-(5-(4-((5-chloro-3,4-dihydro-2,6-naphthyridin-2(1H)-yl)methyl)-3-fluoropyridin-2-yl)-1-oxoisoindolin-2-yl)piperidine-2,6-dione]", "values": [
      {"measurement": "DC50", "value": "≥ 10000", "unit": "nM"}
    ]},
    {"smiles": "CC(=O)N1CC2(CCN(Cc3ccnc(-c4ccc5c(c4)CN(C4CCC(=O)NC4=O)C5=O)c3F)CC2)C1", "note": "(stereo not shown) [Example 251, 3-(5-(4-((2-acetyl-2,7-diazaspiro[3.5]nonan-7-yl)methyl)-3-fluoropyridin-2-yl)-1-oxoisoindolin-2-yl)piperidine-2,6-dione]", "values": [
      {"measurement": "DC50", "value": "≥ 10000", "unit": "nM"}
    ]},
    {"smiles": "C[C@@](O)(c1ccccc1)[C@H]1CCCN1Cc1ccnc(-c2ccc3c(c2)CN(C2CCC(=O)NC2=O)C3=O)c1F", "note": "(stereo partly drawn) [Example 217, 3-(5-(3-fluoro-4-(((R)-2-((R)-1-hydroxy-1-phenylethyl)pyrrolidin-1-yl)methyl)pyridin-2-yl)-1-oxoisoindolin-2-yl)piperidine-2,6-dione]", "values": [
      {"measurement": "DC50", "value": 390, "unit": "nM"}
    ]},
    {"smiles": "CC(=O)N1CCCCN1Cc1ccnc(-c2ccc3c(c2)CN(C2CCC(=O)NC2=O)C3=O)c1F", "note": "(stereo not shown) [Example 199, 3-(5-(4-((2-acetyltetrahydropyridazin-1(2H)-yl)methyl)-3-fluoropyridin-2-yl)-1-oxoisoindolin-2-yl)piperidine-2,6-dione]", "values": [
      {"measurement": "DC50", "value": "≥ 10000", "unit": "nM"}
    ]},
    {"smiles": "CC(=O)N1CCCC12CCN(Cc1ccnc(-c3ccc4c(c3)CN(C3CCC(=O)NC3=O)C4=O)c1F)C2", "note": "(stereo not shown) [Example 270, 3-(5-(4-((1-acetyl-1,7-diazaspiro[4.4]nonan-7-yl)methyl)-3-fluoropyridin-2-yl)-1-oxoisoindolin-2-yl)piperidine-2,6-dione]", "values": [
      {"measurement": "DC50", "value": "≥ 10000", "unit": "nM"}
    ]},
    {"smiles": "CC(C)(C)OC(=O)NC[C@@H]1CCCN1Cc1ccnc(-c2ccc3c(c2)CN(C2CCC(=O)NC2=O)C3=O)c1", "note": "(stereo partly drawn) [Example 195, tert-butyl (((2S)-1-((2-(2-(2,6-dioxopiperidin-3-yl)-1-oxoisoindolin-5-yl)pyridin-4-yl)methyl)pyrrolidin-2-yl)methyl)carbamate]", "values": [
      {"measurement": "DC50", "value": 23.5, "unit": "nM"}
    ]},
    {"smiles": "COCC1CN(Cc2cc(-c3ccc4c(c3)CN(C3CCC(=O)NC3=O)C4=O)ncc2C(F)(F)F)C1", "note": "(stereo not shown) [Example 181, 3-(5-(4-((3-(methoxymethyl)azetidin-1-yl)methyl)-5-(trifluoromethyl)pyridin-2-yl)-1-oxoisoindolin-2-yl)piperidine-2,6-dione]", "values": [
      {"measurement": "DC50", "value": "≥ 10000", "unit": "nM"}
    ]},
    {"smiles": "O=C1CCC(N2Cc3cc(-c4nccc(CN5CCC(O)(c6ccccc6)C5)c4F)ccc3C2=O)C(=O)N1", "note": "(stereo not shown) [Example 257, 3-(5-(3-fluoro-4-((3-hydroxy-3-phenylpyrrolidin-1-yl)methyl)pyridin-2-yl)-1-oxoisoindolin-2-yl)piperidine-2,6-dione]", "values": [
      {"measurement": "DC50", "value": "≥ 10000", "unit": "nM"}
    ]},
    {"smiles": "O=C1CCC(N2Cc3cc(-c4nccc(CN5CCc6[nH]ncc6C5)c4F)ccc3C2=O)C(=O)N1", "note": "(stereo not shown) [Example 254, 3-(5-(3-fluoro-4-((1,4,6,7-tetrahydro-5H-pyrazolo[4,3-c]pyridin-5-yl)methyl)pyridin-2-yl)-1-oxoisoindolin-2-yl) piperidine-2,6-dione]", "values": [
      {"measurement": "DC50", "value": "≥ 10000", "unit": "nM"}
    ]},
    {"smiles": "O=C1CCC(N2Cc3cc(-c4cc(CN5CC[C@@H]5COc5ccc(Cl)nc5)ccn4)ccc3C2=O)C(=O)N1", "note": "(stereo partly drawn) [Example 191, 3-(5-(4-(((R)-2-(((6-chloropyridin-3-yl)oxy)methyl)azetidin-1-yl)methyl)pyridin-2-yl)-1-oxoisoindolin-2-yl)piperidine-2,6-dione]", "values": [
      {"measurement": "DC50", "value": 53.6, "unit": "nM"}
    ]},
    {"smiles": "O=C1CCC(N2Cc3cc(-c4cc(CN5CC[C@H](CO)C5)ccn4)ccc3C2=O)C(=O)N1", "note": "(stereo partly drawn) [Example 105, 3-(5-(4-(((S)-3-(hydroxymethyl)pyrrolidin-1-yl)methyl)pyridin-2-yl)-1-oxoisoindolin-2-yl) piperidine-2,6-dione]", "values": [
      {"measurement": "DC50", "value": 0.4, "unit": "nM"}
    ]},
    {"smiles": "CC(C)(O)[C@H]1CCN(Cc2ccnc(-c3ccc4c(c3F)CN(C3CCC(=O)NC3=O)C4=O)c2F)C1", "note": "(stereo partly drawn) [Example 279, 3-(4-fluoro-5-(3-fluoro-4-(((S)-3-(2-hydroxypropan-2-yl)pyrrolidin-1-yl)methyl)pyridin-2-yl)-1-oxoisoindolin-2-yl)piperidine-2,6-dione]", "values": [
      {"measurement": "DC50", "value": 34.3, "unit": "nM"}
    ]},
    {"smiles": "O=C1CCC(N2Cc3cc(-c4cc(CN5CC6(CCC6)C5)c(F)cn4)ccc3C2=O)C(=O)N1", "note": "(stereo not shown) [Example 93, 3-(5-(4-((2-azaspiro[3.3]heptan-2-yl)methyl)-5-fluoropyridin-2-yl)-1-oxoisoindolin-2-yl) piperidine-2,6-dione]", "values": [
      {"measurement": "DC50", "value": 1.7, "unit": "nM"}
    ]},
    {"smiles": "O=C1CCC(N2Cc3cc(-c4nccc(CN5CCC(O)(C(F)(F)F)CC5)c4F)ccc3C2=O)C(=O)N1", "note": "(stereo not shown) [Example 209, 3-(5-(3-fluoro-4-((4-hydroxy-4-(trifluoromethyl)piperidin-1-yl)methyl)pyridin-2-yl)-1-oxoisoindolin-2-yl)piperidine-2,6-dione]", "values": [
      {"measurement": "DC50", "value": "≥ 10000", "unit": "nM"}
    ]},
    {"smiles": "CC(C)(C)OC(=O)N1CCCC12CCN(Cc1ccnc(-c3ccc4c(c3)CN(C3CCC(=O)NC3=O)C4=O)c1F)C2", "note": "(stereo not shown) [Example 213, tert-butyl 7-((2-(2-(2,6-dioxopiperidin-3-yl)-1-oxoisoindolin-5-yl)-3-fluoropyridin-4-yl)methyl)-1,7-diazaspiro[4.4]nonane-1-carboxylate]", "values": [
      {"measurement": "DC50", "value": "≥ 10000", "unit": "nM"}
    ]}
  ]
}
